Results as given in US11696913B2, “Prolonged ectoparasite-controlling agent for animal” (MITSUI CHEMICALS AGRO, INC., priority 2017, dated 2023).
Where two headings read alike, the source gives them in different places.

How the values were obtained:
Ctenocephalides felis [1] = assay: Systemic treatment in-vivo test with cat flea on rats; conditions: Ctenocephalides felis, ip, intraperitoneal injection
Description: (§1) Systemic Treatment In-Vivo Test with American Dog Tick Nymph and Cat Flea on Rats
(§2) Type of study and overall study design: The method is a randomized non-blinded efficacy study in accordance with European animal welfare requirements. Rats (Rattus norvegicus) were randomized based on pre-treatment flea counts. The efficacy of treatment was determined by comparison of the flea and tick counts of different treatment groups versus the placebo-treated control group. The experimental unit was the individual study animal. Method and route of administration: The compound was applied in a suitable solvent and carrier (more specifically, added to glycerol formal; in case of poorly soluble compounds, a solvent mixture with up to 25% by volume of N-methyl pyrrolidone may be used.) considering the individual body weight as an intraperitoneal injection.
(§3) Experimental infestation: On the day of treatment and weekly thereafter, 30 ticks (D. variabilis nymphs) were released onto the back of each rat, and 30 fleas (C. felis) were released onto the back of each rat 24 h later.
(§4) Tick and Flea counting: Rats were thoroughly examined and ticks and fleas were manually removed 48 h (±4 h) after tick infestation and 24 h after flea infestation. Live fleas and live attached engorged ticks were counted. In non-evident cases, engorgement status was evaluated by squeezing the tick on a filter paper to find traces of blood as sign for engorgement.

Dermacentor variabilis [2] = assay: Systemic treatment in-vivo test with American dog tick nymph on rats; conditions: Dermacentor variabilis, ip, intraperitoneal injection
Description: as §1, §2, §3, §4

Ctenocephalides felis [3] = assay: Topical treatment in-vivo test with cat flea on rats; conditions: topical spot-on, 25 mg/kg
Description: (§5) Topical Treatment In-Vivo Test with American Dog Tick Nymph and Cat Flea on Rats
(§6) Type of study and overall study design: The method is a randomized non-blinded efficacy study in accordance with European animal welfare requirements. Rats (Rattus norvegicus) were randomized based on pre-treatment flea counts. The efficacy of treatment was determined by comparison of the flea and tick counts of different treatment groups versus the placebo-treated control group. The experimental unit was the individual study animal.
(§7) Method and route of administration: The compound was applied in a suitable solvent and carrier (more specifically, added to the following mixture: 33.3% by weight propylene carbonate, […] N-methylpyrrolidone, 0.1% by weight BHA, 0.05% by weight BHT) considering the individual body weight as topical spot-on between the shoulder blades directly onto the skin.
as §3
as §4, with “(+4” for “(±4”

Dermacentor variabilis [4] = assay: Topical treatment in-vivo test with American dog tick nymph on rats; conditions: topical spot-on, 25 mg/kg
Description: as §5, §6, §7, §3
as §4, with “(+4” for “(±4”

[5] = SD 2, read-out: Geometric mean percent reduction in live flea (Ctenocephalides felis) counts compared to untreated control rats
[6] = SD 9, read-out: Geometric mean percent reduction in live flea (Ctenocephalides felis) counts compared to untreated control rats
[7] = SD 2, read-out: Geometric mean percent reduction in live tick (Dermacentor variabilis) counts compared to untreated control rats
[8] = SD 9, read-out: Geometric mean percent reduction in live tick (Dermacentor variabilis) counts compared to untreated control rats
[9] = SD 16, read-out: Geometric mean percent reduction in live tick (Dermacentor variabilis) counts compared to untreated control rats

## CN(C(=O)c1ccccc1)c1cccc(C(=O)Nc2c(Br)cc(C(F)(C(F)(F)F)C(F)(F)F)cc2C(F)(F)F)c1F [Compound (B), reference compound]
Ctenocephalides felis [1]; [5]
  inhibition in vivo at 2 mg/kg: 97%
  inhibition in vivo at 10 mg/kg: 100%
Ctenocephalides felis [1]; [6]
  inhibition in vivo at 2 mg/kg: 32%
  inhibition in vivo at 10 mg/kg: 53%
Ctenocephalides felis [1]; SD 16, read-out: Geometric mean percent reduction in live flea (Ctenocephalides felis) counts compared to untreated control rats
  inhibition in vivo at 10 mg/kg: 6%
Dermacentor variabilis [2]; [7]
  inhibition in vivo at 2 mg/kg: 75%
  inhibition in vivo at 10 mg/kg: 100%
Dermacentor variabilis [2]; [8]
  inhibition in vivo at 2 mg/kg: 63%
  inhibition in vivo at 10 mg/kg: 11%
Dermacentor variabilis [2]; [9]
  inhibition in vivo at 2 mg/kg: 0%
  inhibition in vivo at 10 mg/kg: 2%
Ctenocephalides felis [3]; SD 2
  Geometric mean percent reduction in live flea (Ctenocephalides felis) counts compared to untreated control rats: 84%
Ctenocephalides felis [3]; SD 9
  Geometric mean percent reduction in live flea (Ctenocephalides felis) counts compared to untreated control rats: 72%
Ctenocephalides felis [3]; SD 16
  Geometric mean percent reduction in live flea (Ctenocephalides felis) counts compared to untreated control rats: 45%
Dermacentor variabilis [4]; SD 2
  Geometric mean percent reduction in live tick (Dermacentor variabilis) counts compared to untreated control rats: 58%
Dermacentor variabilis [4]; SD 9
  Geometric mean percent reduction in live tick (Dermacentor variabilis) counts compared to untreated control rats: 85%
Dermacentor variabilis [4]; SD 16
  Geometric mean percent reduction in live tick (Dermacentor variabilis) counts compared to untreated control rats: 65%
Dermacentor variabilis [4]; SD 23
  Geometric mean percent reduction in live tick (Dermacentor variabilis) counts compared to untreated control rats: 4%
